Laboratory results as given in patent US10548982B2, “Reversible covalent linkage of functional molecules” (priority 2009, dated 2020).

System: GIRK currents
Assay: patch-clamp controls: inhibition of the activated GIRK currents
Type: cell-based, human
Procedure: HEK 293 cells expressing HKIR3.1/3.2 channel and human somatostatin receptor 2 were treated with these compounds, and whole cell patch-clamp current recordings taken. […] Cell Culture
Whole cell patch-clamp current recordings were performed with an Axopatch 200B amplifier (Axon Instruments) using fire-polished pipettes with a resistance of 3-4 MS pulled from filamented borosilicated glass capillaries (Harvard Apparatus, 1.5 mm OD×1.17 mm ID). Data was acquired and analysed via a Digidata 1322A interface (Axon Instruments) and pCLAMP software (version 8.1, Axon Instruments). A fast perfusion system was used to apply somatostatin and analogues (Rapid Solution Changer, RSC-160, Bio-Logic France). Cells were clamped at −60 mV. The extracellular solution was (mM): NaCl 80, KCl 60, CaCl2 2, MgCl2 1, HEPES 10, NaH2PO4 0.33, glucose 10, pH 7.4; while the intracellular solution was (mM): K gluconate 110, KCl 20, NaCl 10, MgCl2 1, MgATP 2, EGTA 2 GTP 0.3, pH 7.4. After agonist application, current activated with a delay “lag” followed by a rapid rise to peak amplitude “time to peak”. After removal of the agonist, the current decays back to baseline. For each cell it was assessed if flow artifacts resulting from the pressure of drug application were present. This was done by applying bath solution from one of the sewer pipes at the beginning of the recordings. […]

| Substance | GIRK currents after treatment of cells with Pertussis toxin (control) (pertussis toxin 100 ng/ml, cells incubated overnight) | GIRK currents after GIRK inhibitor Tertiapin Q (control) (Tertiapin 100 nM) |
| --- | --- | --- |
| Pertussis toxin | currents were largely inhibited |  |
| Tertiapin Q |  | currents were largely inhibited |
